According to US20250215039A1, “NUCLEOSIDES FOR TREATING CANCER” (PRIMEFOUR THERAPEUTICS, INC., priority 2022, published 2025):
pIC50: −log10 of the molar value. Where two headings read alike, the source gives them in different places.

Tested on: cancer cell lines
Experiment: Cancer cell proliferation activity (CellTiterGlo, 72 h)
Assay type: cell-based
Details: 72 h, 72 h, read-out: IC50 cell proliferation
Summary of the method: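 Readout is CellTiterGlo luminescence after 72 h compound exposure (0.1% DMSO final), started one day post-seeding, at 37 °C.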

- pIC50 (5637 (bladder)): 6.64
- pIC50 (CLS439 (bladder)): 6.40
- pIC50 (HS729 (muscle)): 6.82
- pIC50 (J82 (bladder)): 6.80
- pIC50 (JAR (placenta)): 7.00
- pIC50 (MT3 (breast)): 6.92
- pIC50 (PANCI (pancreas)): 5.65
- pIC50 (PC3 (prostate)): 6.66
- pIC50 (RD (muscle)): 6.68
- pIC50 (T24 (bladder)): 6.52
- pIC50 (Homo sapiens, 22Rv1, 72 h, 22RV1 (prostate)): 6.27
- pIC50 (Homo sapiens, 786-0, 72 h, 786O (kidney)): 6.96
- pIC50 (Homo sapiens, A204, 72 h, A204 (muscle)): 6.85
- pIC50 (Homo sapiens, A549, 72 h, A549 (lung)): 7.22
- pIC50 (Homo sapiens, A673, 72 h, A673 (bone)): 6.15
- pIC50 (Homo sapiens, A2780, 72 h, A2780 (ovary)): 6.41
- pIC50 (Homo sapiens, A-375, 72 h, A375 (skin)): 6.96
- pIC50 (Homo sapiens, A-431, 72 h, A431 (skin)): 7.15
- pIC50 (Homo sapiens, ACHN, ACHN (kidney)): 7.05
- pIC50 (Homo sapiens, ASPC1, 72 h, ASPC1 (pancreas)): 6.89
- pIC50 (Homo sapiens, BT-20, 72 h, BT20 (breast)): 6.96
- pIC50 (Homo sapiens, BXPC-3, 72 h, BXPC3 (pancreas)): 7.10
- pIC50 (Homo sapiens, C-33-A, C33A (endometrial)): 6.42
- pIC50 (Homo sapiens, CAKI-1, 72 h, CAKI1 (kidney)): 7.70
- pIC50 (Homo sapiens, COLO 205, 72 h, COLO205 (colon)): 6.48
- pIC50 (Homo sapiens, COLO-678, 72 h, COLO678 (colon)): 7.00
- pIC50 (Homo sapiens, Ca-Ski, CASKI (endometrial)): 7.30
- pIC50 (Homo sapiens, Caco-2, 72 h, CACO2 (colon)): 6.55
- pIC50 (Homo sapiens, Calu-6, 72 h, CALU6 (lung)): 7.40
- pIC50 (Homo sapiens, DLD-1, 72 h, DLD1 (colon)): 6.29
- pIC50 (Homo sapiens, DU-145, 72 h, DU145 (prostate)): 7.52
- pIC50 (Homo sapiens, EFO-21, 72 h, EFO21 (ovary)): 6.82
- pIC50 (Homo sapiens, EJ-28, 72 h, EJ28 (bladder)): 6.85
- pIC50 (Homo sapiens, Granta-519, 72 h, GRANTA-519 (hematological)): 6.80
- pIC50 (Homo sapiens, HCT-15, 72 h, HCT15 (colon)): 6.54
- pIC50 (Homo sapiens, HCT-116, 72 h, HCT116 (colon)): 6.60
- pIC50 (Homo sapiens, HEK293, 72 h, HEK293 (kidney)): 6.70
- pIC50 (Homo sapiens, HL-60, 72 h, HL-60 (hematological)): 7.00
- pIC50 (Homo sapiens, HT-29, 72 h, HT29 (colon)): 6.59
- pIC50 (Homo sapiens, HT-1080, 72 h, HT1080 (connective tissue)): 6.57
- pIC50 (Homo sapiens, HeLa, HELA (endometrial)): 7.10
- pIC50 (Homo sapiens, HepG2, 72 h, HEPG2 (liver)): 6.77
- pIC50 (Homo sapiens, Hs-578T, HS578T (breast)): 7.22
- pIC50 (Homo sapiens, IGROV-1, 72 h, IGROV1 (ovary)): 7.10
- pIC50 (Homo sapiens, IMR-90, 72 h, IMR90 (lung)): 7.22
- pIC50 (Homo sapiens, JEG-3, 72 h, JEG3 (placenta)): 7.00
- pIC50 (Homo sapiens, JIMT-1, 72 h, JIMT1 (breast)): 7.52
- pIC50 (Homo sapiens, K562, 72 h, K-562 (hematological)): 6.28
- pIC50 (Homo sapiens, Kasumi 1, 72 h, KASUMI-1 (hematological)): 7.70
- pIC50 (Homo sapiens, L-363, 72 h, L-363 (hematological)): 7.05
- pIC50 (Homo sapiens, LoVo, LOVO (colon)): 7.52
- pIC50 (Homo sapiens, MCF7, 72 h, MCF7 (breast)): 6.41
- pIC50 (Homo sapiens, MDA-MB-231, 72 h, MDAMB231 (breast)): 6.62
- pIC50 (Homo sapiens, MDA-MB-435, 72 h, MDAMB435 (skin)): 6.49
- pIC50 (Homo sapiens, MDA-MB-436, 72 h, MDAMB436 (breast)): 7.10
- pIC50 (Homo sapiens, MDA-MB-468, 72 h, MDAMB468 (breast)): 7.15
- pIC50 (Homo sapiens, MG-63, 72 h, MG63 (bone)): 5.76
- pIC50 (Homo sapiens, MHH-ES-1, 72 h, MHHES1 (bone)): 6.77
- pIC50 (Homo sapiens, MIA PaCa-2, 72 h, MIAPACA2 (pancreas)): 5.76
- pIC50 (Homo sapiens, MINO, MINO (hematological)): 7.70
- pIC50 (Homo sapiens, MV4-11, 72 h, MV4-11 (hematological)): 7.70
- pIC50 (Homo sapiens, NCI-H23, 72 h, NCI-H23 (lung)): 6.66
- pIC50 (Homo sapiens, NCI-H82, 72 h, NCIH82 (lung)): 6.77
- pIC50 (Homo sapiens, NCI-H292, 72 h, NCIH292 (lung)): 6.82
- pIC50 (Homo sapiens, NCI-H460, 72 h, NCIH460 (lung)): 6.77
- pIC50 (Homo sapiens, OVCAR-3, 72 h, OVCAR3 (ovary)): 7.10
- pIC50 (Homo sapiens, OVCAR-4, 72 h, OVCAR4 (ovary)): 6.82
- pIC50 (Homo sapiens, PLC-PRF-5, 72 h, PLCPRF5 (liver)): 5.98
- pIC50 (Homo sapiens, Panc1005, 72 h, PANC1005 (pancreas)): 6.74
- pIC50 (Homo sapiens, Ramos, RAMOS (hematological)): 6.85
- pIC50 (Homo sapiens, SAOS-2, 72 h, SAOS2 (bone)): 7.00
- pIC50 (Homo sapiens, SF-268, 72 h, SF268 (brain)): 6.52
- pIC50 (Homo sapiens, SF-295, 72 h, SF295 (brain)): 6.66
- pIC50 (Homo sapiens, SK-BR-3, 72 h, SKBR3 (breast)): 7.52
- pIC50 (Homo sapiens, SK-HEP1, 72 h, SKHEP1 (liver)): 7.22
- pIC50 (Homo sapiens, SK-LMS-1, 72 h, SKLMS1 (uterus)): 6.85
- pIC50 (Homo sapiens, SK-MEL-5, 72 h, SKMEL5 (skin; SKMELS [sic] in Table 9E)): 7.05
- pIC50 (Homo sapiens, SK-MEL-28, 72 h, SKMEL28 (skin)): 7.00
- pIC50 (Homo sapiens, SK-N-AS, SKNAS (brain)): 6.92
- pIC50 (Homo sapiens, SK-N-SH, SKNSH (brain)): 7.10
- pIC50 (Homo sapiens, SK-OV-3, 72 h, SKOV3 (ovary)): 7.05
- pIC50 (Homo sapiens, SNB-75, 72 h, SNB75 (brain)): 6.66
- pIC50 (Homo sapiens, SU-DHL10, 72 h, SU-DHL-10 (hematological)): 6.68
- pIC50 (Homo sapiens, SU-DHL-6, 72 h, SU-DHL-6 (hematological)): 7.22
- pIC50 (Homo sapiens, SW-620, 72 h, SW620 (colon)): 7.10
- pIC50 (Homo sapiens, TE-671, 72 h, TE671 (muscle)): 6.14
- pIC50 (Homo sapiens, THP-1, 72 h, THP-1 (hematological)): 6.70
- pIC50 (Homo sapiens, U2OS, U20S (bone; U2OS in Table 9E)): 7.15
- pIC50 (Homo sapiens, U-87 MG, U87MG (brain)): 6.82
- pIC50 (Homo sapiens, UMUC3, 72 h, UMUC3 (bladder)): 6.72
- pIC50 (Homo sapiens, UO-31, 72 h, UO31 (kidney)): 7.30
- pIC50 (Homo sapiens, WSU-NHL, WSU-NHL (hematological)): 7.40
- pIC50 (NCI-H358M, NCIH358M (lung)): 6.85
- pIC50 (PBMC, PBMC (hematological)): 7.70
- pIC50 (RD-ES, RDES (bone)): 7.40
SMILES: CCC[C@]1(CO)O[C@@H](n2cnc3c(N)nc(F)nc32)[C@H](O)[C@@H]1O [compound 195, (2R,3S,4R,5R)-5-(6-amino-2-fluoro-9H-purin-9-yl)-2-(hydroxymethyl)-2-propyltetrahydrofuran-3,4-diol]
